Among the data in PubChem BioAssay AID463136 (University of Pittsburgh Molecular Library Screening Center, 2010) are inhibition and IC50 values, retold here.

Inconclusive results are not listed. Active and inactive are the calls of the source. The rule behind the calls is not given here.

The nature of test [1]: dynein cargo transport inhibitors, potency, dose response, imaging, high-content imaging (AID 463136).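 Note: mouse mammary adenocarcinoma 3617.4 cells expressing GFP-tagged rat glucocorticoid receptor.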 The settings on record: HCS imaging, dynein-mediated cargo transport inhibition; inhibition at max concentration; at 50 µM; stronger effect = higher value.
The subject of test [2] is HCS imaging, dynein-mediated cargo transport inhibition. Described as above.

As usually defined, the inhibition is the change of the read-out against control, counted positive when it falls. Broadly, the IC50 is the point on the concentration scale where inhibition reaches its midpoint. Regarding `Cn1c(=O)c(NCCc2ccccc2)c2c3c(cccc31)C(=O)c1ccccc1-2`, the inhibition in test [1] turned out to be 19%. Moreover, in test [2], the IC50 is > 50 µM (inactive).
In test [1], `COc1ccccc1N1C(=O)CC(Sc2n[nH]c(-c3cccc(C)c3)n2)C1=O` (stereo not drawn) registered an inhibition of 5.74%. For the same molecule, the IC50 in test [2] was > 50 µM (inactive).
The matching figures for `Cc1cc2oc(=O)cc(Cn3ncc(Cl)c(Cl)c3=O)c2cc1Cl`: 65.7% and 20.1 µM.
For `CCOC(=O)C(=Cc1cc(=O)c(OC)co1)C(=O)OCC`, in test [1], the inhibition was 87.9%. Also, the IC50 in test [2] is 6.45 µM.
Taken in the same sequence, the figures for `CC(C)N1C/C(=C/c2ccsc2)C(=O)/C(=C/c2ccsc2)C1` were 69.2% and 40.1 µM.
As to `CN(C)c1ccc(/C=C/C(=O)c2cccc(Br)c2)cc1`, the inhibition in test [1] was determined as 18.7%. Further, the IC50 in test [2] is > 50 µM (inactive).
Taken in the same sequence, the figures for `O=C(/C=C/c1ccccc1Cl)c1cccnc1` were 85.3% and 17.2 µM.
The matching figures for `CC(=O)N(C1CC(C)C(C#N)(C#N)C1(C#N)C#N)N(C)C` (stereo not drawn): 5.79% and > 50 µM (inactive).
`CC(C)(C)C(=O)Cn1ncc(Br)c(Br)c1=O` had an inhibition in test [1] of 59.6%. In addition, in test [2], the IC50 was 7.91 µM.
Taken in the same sequence, the figures for `COC/C=C/C1=CC2=CC(=O)C(C)(OC(=O)c3cnc4ccccc4n3)C(=O)C2=CN1Cc1ccc(OC)cc1` (stereo not drawn) were 89.5% and 15 µM.
The matching figures for `CCOC(=O)c1c(-c2ccc(C)cc2)csc1NC(=O)/C(C#N)=C/c1ccc(O)c(OC)c1`: 4.51% and > 50 µM (inactive).
Regarding `Cc1ccc2nc(Cl)c3nnnn3c2c1`, in test [1], the inhibition was 64%. Further, in test [2], the IC50 was 9.43 µM.
The matching figures for `COC(=O)c1cc(=O)n(Cc2ccc3c(c2)OCO3)c(=Nc2ccc(F)c(Cl)c2)s1`: 8.81% and > 50 µM (inactive).
In the case of `O=C(NCc1cccnc1)/C(=C\c1ccc(-c2ccc(Br)cc2)o1)S(=O)(=O)c1ccccc1`, in test [1], the inhibition came out at 55.1%. Besides, the IC50 in test [2] is 39.4 µM.
The matching figures for `Clc1ncnc2scc(-c3ccc(Br)cc3)c12`: 85.1% and 19.9 µM.
As to `CCOc1ccc2noc3c2c1C(=O)c1ccccc1-3`, the inhibition in test [1] is 99.2%. In addition, the IC50 in test [2] is 11 µM.
Consider `CC(=O)N1/C(=C/c2ccc(N(C)C)cc2)C(=O)c2ccccc21`, for which, in test [1], the inhibition is 78.9%. In addition, the IC50 in test [2] is 29.9 µM.
In test [1], `CCOc1cc(C=C(C(=O)OC)C(=O)OC)ccc1OCc1ccc([N+](=O)[O-])cc1` showed an inhibition of 37.2%. For the same molecule, the IC50 in test [2] was > 50 µM (inactive).
As to `CCOC(=O)c1c(NC(=S)N2CCCCC2)sc2c1CCN(C(=O)OCC)C2`, the inhibition in test [1] came to 30.3%. Further, the IC50 in test [2] is > 50 µM (inactive).
In turn, `O=[N+]([O-])c1cc(S(=O)(=O)N2CCCCCC2)ccc1F` yielded an inhibition in test [1] of 87.3%. For the same molecule, the IC50 in test [2] was 33.7 µM.
Taken in the same sequence, the figures for `CCOC(=O)C(=Cc1ccc(OCc2ccc([N+](=O)[O-])cc2)c(OC)c1)C(=O)OCC` were 2.92% and > 50 µM (inactive).
Taken in the same sequence, the figures for `CCCCc1ccc(/C=C2\C(=O)c3ccccc3C(O)=C2C(=O)OCC)cc1` were 15.5% and > 50 µM (inactive).
Taken in the same sequence, the figures for `COc1ccc(NC(=O)/C(Cl)=C(/Cl)S(=O)Cc2ccccc2)cn1` (stereo not drawn) were 64.4% and 19.5 µM.
For `N#C/C(=C/c1ccc(N2CCCCC2)o1)C(=O)Nc1ccc2ccccc2c1`, the inhibition in test [1] came to 98.5%. Moreover, the IC50 in test [2] was 27.4 µM.
The matching figures for `CCOC(=O)C(=Cc1ccc(-n2cncn2)cc1)C(=O)OCC`: 89.8% and 33.7 µM.
Molecule `N#Cc1ccccc1Cn1cc(/C=C/[N+](=O)[O-])c2ccccc21` displayed an inhibition in test [1] of 83.6%. The IC50 in test [2] was 34.6 µM.
In test [1], `COc1ccc(-c2csc3nc(-c4cccnc4)nc(Cl)c23)cc1OC` gave an inhibition of 84.4%. Besides, the IC50 in test [2] is 27.5 µM.
The matching figures for `CCN(CC)c1ccc(/C=C/C(=O)c2ccc(Br)cc2)cc1`: 7.65% and > 50 µM (inactive).
Turning to `O=C(c1nnsc1S(=O)c1ccc(Cl)cc1)N1CCOCC1` (stereo not drawn), the inhibition in test [1] was 76.9%. Also, in test [2], the IC50 is 2.18 µM.
Taken in the same sequence, the figures for `Cc1ccc(C(=O)OCn2ncc(Cl)c(Cl)c2=O)cc1` were 76.2% and 18.9 µM.
The matching figures for `COc1ccc(-c2cc(C(F)(F)F)nc(S(=O)(=O)CCCC(=O)Nc3cc(C)on3)n2)cc1OC`: 67.2% and 42.9 µM.
The matching figures for `CCN1C/C(=C/c2cccc([N+](=O)[O-])c2)C(=O)/C(=C/c2cccc([N+](=O)[O-])c2)C1`: 84.7% and 22.6 µM.
As to `O=C(/C(=C/c1ccc(Cl)cc1)c1nc2ccccc2[nH]1)c1ccccc1`, the inhibition in test [1] amounted to 21.4%. For the same molecule, the IC50 in test [2] is > 50 µM (inactive).
`COc1cccc(/C(O)=C/c2nc3ccc(C(=O)NCCc4ccc(Cl)cc4)cc3[nH]c2=O)c1` showed an inhibition in test [1] of 32.4%. The IC50 in test [2] is > 50 µM (inactive).
